Experimental data as given in ChEMBL document CHEMBL3397011, “A novel molecule with notable activity against multi-drug resistant tuberculosis” (Bioorg Med Chem Lett, 2015).

Assays:
[1] = target: T1, UDP-glucuronosyltransferase 1A1 (Homo sapiens, UniProt P22309); assay: Inhibition of UGT1A1 in pooled mixed-gender human liver microsomes using 4-methylumbelliferone substrate by HPLC method; type: ADME
T1 sequence (P22309 whole entry): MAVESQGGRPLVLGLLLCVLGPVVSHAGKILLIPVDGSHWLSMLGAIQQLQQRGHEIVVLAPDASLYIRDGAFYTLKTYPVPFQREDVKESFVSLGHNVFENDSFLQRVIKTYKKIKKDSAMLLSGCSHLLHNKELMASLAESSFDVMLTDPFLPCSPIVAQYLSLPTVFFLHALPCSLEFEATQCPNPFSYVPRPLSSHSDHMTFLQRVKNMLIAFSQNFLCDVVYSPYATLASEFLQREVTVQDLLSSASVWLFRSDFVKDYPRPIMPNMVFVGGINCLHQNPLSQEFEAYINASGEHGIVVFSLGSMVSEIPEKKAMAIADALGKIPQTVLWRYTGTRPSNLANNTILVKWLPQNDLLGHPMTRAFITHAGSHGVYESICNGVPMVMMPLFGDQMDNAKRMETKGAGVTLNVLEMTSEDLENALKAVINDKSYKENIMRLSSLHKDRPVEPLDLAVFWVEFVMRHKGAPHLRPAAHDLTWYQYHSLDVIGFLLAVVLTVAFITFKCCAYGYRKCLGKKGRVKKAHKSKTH

[2] = target: T2, Cytochrome P450 3A4 (Homo sapiens, UniProt P08684); assay: Activation of CYP3A4 in pooled mixed-gender human liver microsomes using triazolam substrate in presence of NADPH pre-incubated for 3 mins by HPLC-UV detection method; type: ADME
[3] = target: T2, Cytochrome P450 3A4; assay: Inhibition of CYP3A4 in pooled mixed-gender human liver microsomes at <25 uM using triazolam substrate in presence of NADPH pre-incubated for 3 mins by HPLC-UV detection method; type: ADME
[4] = target: T3, UDP-glucuronosyltransferase 2B7 (Homo sapiens, UniProt P16662); assay: Activation of UGT2B7 in pooled mixed-gender human liver microsomes at 50 uM preincubated at 37 degC for 3 mins before UDPGA addition by HPLC method; type: ADME
T3 sequence (P16662 whole entry): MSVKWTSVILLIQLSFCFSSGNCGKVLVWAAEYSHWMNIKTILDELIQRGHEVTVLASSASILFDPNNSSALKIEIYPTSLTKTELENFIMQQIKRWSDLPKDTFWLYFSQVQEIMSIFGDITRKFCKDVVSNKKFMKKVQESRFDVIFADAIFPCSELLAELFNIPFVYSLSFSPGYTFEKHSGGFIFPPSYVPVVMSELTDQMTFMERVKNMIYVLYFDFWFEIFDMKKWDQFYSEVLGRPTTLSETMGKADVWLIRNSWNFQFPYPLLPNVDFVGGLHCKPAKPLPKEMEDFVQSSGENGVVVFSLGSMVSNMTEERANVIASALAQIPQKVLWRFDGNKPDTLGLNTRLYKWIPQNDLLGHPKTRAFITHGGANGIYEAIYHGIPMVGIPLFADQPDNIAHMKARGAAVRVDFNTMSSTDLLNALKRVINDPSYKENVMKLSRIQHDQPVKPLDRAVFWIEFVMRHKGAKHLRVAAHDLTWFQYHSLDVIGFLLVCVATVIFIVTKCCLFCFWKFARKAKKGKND

[5] = target: T4, UDP-glucuronosyltransferase 1A4 (Homo sapiens, UniProt P22310); assay: Activation of UGT1A4 in pooled mixed-gender human liver microsomes at 100 uM preincubated at 37 degC for 3 mins before UDPGA addition by HPLC method; type: ADME
T4 sequence (P22310 whole entry): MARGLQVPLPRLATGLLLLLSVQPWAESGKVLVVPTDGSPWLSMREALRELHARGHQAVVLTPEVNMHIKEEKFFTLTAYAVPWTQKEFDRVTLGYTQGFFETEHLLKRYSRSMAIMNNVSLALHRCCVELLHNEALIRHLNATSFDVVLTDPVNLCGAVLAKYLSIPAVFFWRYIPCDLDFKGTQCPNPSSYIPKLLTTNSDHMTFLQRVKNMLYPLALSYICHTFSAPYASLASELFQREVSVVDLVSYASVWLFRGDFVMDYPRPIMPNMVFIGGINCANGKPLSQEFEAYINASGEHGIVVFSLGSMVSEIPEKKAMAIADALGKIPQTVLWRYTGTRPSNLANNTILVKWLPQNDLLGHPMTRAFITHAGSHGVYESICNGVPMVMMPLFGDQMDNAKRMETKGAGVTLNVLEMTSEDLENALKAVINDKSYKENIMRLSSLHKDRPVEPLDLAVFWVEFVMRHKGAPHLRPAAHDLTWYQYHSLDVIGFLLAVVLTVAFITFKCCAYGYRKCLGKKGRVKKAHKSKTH

[6] = target: T4, UDP-glucuronosyltransferase 1A4; assay: Inhibition of UGT1A4 in pooled mixed-gender human liver microsomes using 4-methylumbelliferone substrate by HPLC method; type: ADME
[7] = target: T2, Cytochrome P450 3A4; assay: Activation of CYP3A4 in pooled mixed-gender human liver microsomes using testosterone substrate in presence of NADPH pre-incubated for 3 mins by HPLC-UV detection method; type: ADME
[8] = target: T2, Cytochrome P450 3A4; assay: Inhibition of CYP3A4 in pooled mixed-gender human liver microsomes using triazolam substrate in presence of NADPH pre-incubated for 3 mins by HPLC-UV detection method; type: ADME
[9] = target: T5, UDP-glucuronosyltransferase 1A9 (Homo sapiens, UniProt O60656); assay: Drug metabolism assessed as UGT1A9-mediated compound glucuronidation in pooled mixed-gender human liver microsomes at 50 uM preincubated at 37 degC for 3 mins before UDPGA addition by HPLC method; type: ADME
T5 sequence (O60656 whole entry): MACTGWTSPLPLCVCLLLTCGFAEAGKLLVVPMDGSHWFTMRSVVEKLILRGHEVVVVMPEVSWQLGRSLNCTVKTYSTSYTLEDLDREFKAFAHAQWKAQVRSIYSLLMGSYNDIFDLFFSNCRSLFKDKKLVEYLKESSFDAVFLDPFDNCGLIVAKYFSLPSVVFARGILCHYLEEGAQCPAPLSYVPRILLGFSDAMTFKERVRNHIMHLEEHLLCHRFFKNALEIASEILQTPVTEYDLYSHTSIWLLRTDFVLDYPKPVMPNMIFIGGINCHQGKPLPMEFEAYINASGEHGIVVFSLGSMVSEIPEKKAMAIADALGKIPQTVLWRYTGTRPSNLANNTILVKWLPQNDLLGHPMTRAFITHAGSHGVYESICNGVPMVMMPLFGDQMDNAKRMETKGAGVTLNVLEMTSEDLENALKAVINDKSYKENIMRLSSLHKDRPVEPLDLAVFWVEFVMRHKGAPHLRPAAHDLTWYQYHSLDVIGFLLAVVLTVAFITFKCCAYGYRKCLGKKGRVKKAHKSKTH

[10] = target: T6, Cytochrome P450 2D6 (Homo sapiens, UniProt P10635); assay: Inhibition of […] in pooled mixed-gender human liver microsomes at <25 uM using dextromethorphan substrate in presence of NADPH pre-incubated for 3 mins by HPLC-UV detection method; type: ADME
[11] = target: T3, UDP-glucuronosyltransferase 2B7; assay: Drug metabolism assessed as UGT2B7-mediated compound glucuronidation in pooled mixed-gender human liver microsomes at 50 uM preincubated at 37 degC for 3 mins before UDPGA addition by HPLC method; type: ADME
[12] = Dissociation constant, pKa of the compound; type: physicochemical
[13] = target: T4, UDP-glucuronosyltransferase 1A4; assay: Activation of UGT1A4 in pooled mixed-gender human liver microsomes at 50 uM preincubated at 37 degC for 3 mins before UDPGA addition by HPLC method; type: ADME
[14] = test system: Liver microsome; assay: Half life in pooled mixed-gender human liver microsomes at 50 uM in presence of NADPH pre-incubated for 3 mins before NADPH addition followed by incubation for 60 mins by reversed-phase HPLC method; type: ADME; conditions: 1 h
[15] = target: T6, Cytochrome P450 2D6; assay: Activation of […] in pooled mixed-gender human liver microsomes using dextromethorphan substrate in presence of NADPH pre-incubated for 3 mins by HPLC-UV detection method; type: ADME
[16] = target: T7, UDP-glucuronosyltransferase 1A6 (Homo sapiens, UniProt P19224); assay: Activation of UGT1A6 in pooled mixed-gender human liver microsomes at 50 uM preincubated at 37 degC for 3 mins before UDPGA addition by HPLC method; type: ADME
T7 sequence (P19224 whole entry): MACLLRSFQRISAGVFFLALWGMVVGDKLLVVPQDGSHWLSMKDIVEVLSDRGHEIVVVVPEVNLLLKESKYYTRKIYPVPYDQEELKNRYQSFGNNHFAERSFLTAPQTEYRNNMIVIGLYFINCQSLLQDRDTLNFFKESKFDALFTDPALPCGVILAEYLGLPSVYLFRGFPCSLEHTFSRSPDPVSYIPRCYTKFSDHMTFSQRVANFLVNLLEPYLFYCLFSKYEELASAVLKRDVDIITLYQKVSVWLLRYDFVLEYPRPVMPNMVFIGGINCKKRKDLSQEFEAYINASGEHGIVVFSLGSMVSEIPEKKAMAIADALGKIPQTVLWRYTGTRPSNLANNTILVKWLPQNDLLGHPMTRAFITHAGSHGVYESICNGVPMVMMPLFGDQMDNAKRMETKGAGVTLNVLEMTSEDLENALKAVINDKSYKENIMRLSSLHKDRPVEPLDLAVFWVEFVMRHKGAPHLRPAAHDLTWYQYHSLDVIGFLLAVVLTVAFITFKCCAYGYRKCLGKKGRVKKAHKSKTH

[17] = target: T7, UDP-glucuronosyltransferase 1A6; assay: Inhibition of UGT1A6 in pooled mixed-gender human liver microsomes using 4-methylumbelliferone substrate by HPLC method; type: ADME
[18] = target: T2, Cytochrome P450 3A4; assay: Inhibition of CYP3A4 in pooled mixed-gender human liver microsomes using testosterone substrate in presence of NADPH pre-incubated for 3 mins by HPLC-UV detection method; type: ADME
[19] = target: T5, UDP-glucuronosyltransferase 1A9; assay: Inhibition of UGT1A9 in pooled mixed-gender human liver microsomes using 4-methylumbelliferone substrate by HPLC method; type: ADME
[20] = Toxicity against macrophages (unknown origin) assessed cell viability at 4 times MIC level after 7 days by MTT assay; type: cell-based, Macrophage; conditions: read-out: Activity
[21] = target: T5, UDP-glucuronosyltransferase 1A9; assay: Activation of UGT1A9 in pooled mixed-gender human liver microsomes at 50 uM preincubated at 37 degC for 3 mins before UDPGA addition by HPLC method; type: ADME
[22] = target: T1, UDP-glucuronosyltransferase 1A1; assay: Drug metabolism assessed as UGT1A1-mediated compound glucuronidation in pooled mixed-gender human liver microsomes at 50 uM preincubated at 37 degC for 3 mins before UDPGA addition by HPLC method; type: ADME
[23] = target: T3, UDP-glucuronosyltransferase 2B7; assay: Inhibition of […] in pooled mixed-gender human liver microsomes using 4-methylumbelliferone substrate by HPLC method; type: ADME
[24] = target: T6, Cytochrome P450 2D6; assay: Inhibition of […] in pooled mixed-gender human liver microsomes using dextromethorphan substrate in presence of NADPH pre-incubated for 3 mins by HPLC-UV detection method; type: ADME
[25] = target: T4, UDP-glucuronosyltransferase 1A4; assay: Drug metabolism assessed as UGT1A4-mediated compound glucuronidation in pooled mixed-gender human liver microsomes at 50 uM preincubated at 37 degC for 3 mins before UDPGA addition by HPLC method; type: ADME
[26] = test system: Human immunodeficiency virus 1; assay: Antiviral activity against HIV1 infected in human MAGI-R5 cells; type: functional, organism-based; conditions: Human immunodeficiency virus 1, MAGI-R5
[27] = target: T7, UDP-glucuronosyltransferase 1A6; assay: Drug metabolism assessed as UGT1A6-mediated compound glucuronidation in pooled mixed-gender human liver microsomes at 50 uM preincubated at 37 degC for 3 mins before UDPGA addition by HPLC method; type: ADME
[28] = target: T1, UDP-glucuronosyltransferase 1A1; assay: Activation of UGT1A1 in pooled mixed-gender human liver microsomes at 50 uM preincubated at 37 degC for 3 mins before UDPGA addition by HPLC method; type: ADME
[29] = target: T2, Cytochrome P450 3A4; assay: Inhibition of CYP3A4 in pooled mixed-gender human liver microsomes at <25 uM using testosterone substrate in presence of NADPH pre-incubated for 3 mins by HPLC-UV detection method; type: ADME

T6 sequence (P10635 whole entry): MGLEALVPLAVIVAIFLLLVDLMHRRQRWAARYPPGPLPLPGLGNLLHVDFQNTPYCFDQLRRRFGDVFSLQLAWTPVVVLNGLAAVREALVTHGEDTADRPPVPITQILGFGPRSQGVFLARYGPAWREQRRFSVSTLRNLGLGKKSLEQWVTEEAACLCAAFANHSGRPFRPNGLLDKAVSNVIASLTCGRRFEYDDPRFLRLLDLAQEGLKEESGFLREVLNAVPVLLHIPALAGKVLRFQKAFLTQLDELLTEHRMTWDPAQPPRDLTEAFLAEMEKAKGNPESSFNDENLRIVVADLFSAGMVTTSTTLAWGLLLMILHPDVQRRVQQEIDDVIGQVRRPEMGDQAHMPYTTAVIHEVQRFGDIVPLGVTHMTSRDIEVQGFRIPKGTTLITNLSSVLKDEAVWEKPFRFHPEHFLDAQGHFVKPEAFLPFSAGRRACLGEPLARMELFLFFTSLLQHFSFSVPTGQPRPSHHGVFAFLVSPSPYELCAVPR
T2 sequence (P08684 whole entry): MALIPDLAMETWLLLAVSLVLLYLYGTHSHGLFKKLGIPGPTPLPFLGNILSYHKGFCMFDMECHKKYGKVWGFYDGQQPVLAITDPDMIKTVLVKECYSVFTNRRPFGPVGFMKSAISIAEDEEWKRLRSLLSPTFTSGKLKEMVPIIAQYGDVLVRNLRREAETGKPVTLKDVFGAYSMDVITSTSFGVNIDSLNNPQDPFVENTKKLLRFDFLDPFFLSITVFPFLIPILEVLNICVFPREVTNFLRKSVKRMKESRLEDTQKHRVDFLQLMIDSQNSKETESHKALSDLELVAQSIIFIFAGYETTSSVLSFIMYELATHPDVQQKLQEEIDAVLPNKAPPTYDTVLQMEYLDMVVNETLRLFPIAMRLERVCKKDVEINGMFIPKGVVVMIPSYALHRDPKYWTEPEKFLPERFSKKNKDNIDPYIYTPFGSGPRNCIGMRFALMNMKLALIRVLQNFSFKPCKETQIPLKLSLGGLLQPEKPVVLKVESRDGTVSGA

## O=C(/C=C(\O)C(=O)N1CCN(c2ccc(-n3cccc3)cc2)CC1)c1cc(Cc2cc(F)cc(F)c2)cn(Cc2ccccc2F)c1=O
[1]
  IC50: > 300 µM
[2]
  Activity: Not Active
[3]
  inhibition (INH): Not Active
[4]
  Activity: Not Active
[5]
  Activity: Active
[6]
  IC50: Not Active
[7]
  Activity: Not Active
[8]
  IC50: > 85 µM
[9]
  Drug metabolism: metabolite_notdetected
[10]
  inhibition (INH): Not Active
[11]
  Drug metabolism: metabolite_notdetected
[12]
  pKa: 9
[13]
  Activity: Not Active
[14]
  t1/2: 14.4 h
[15]
  Activity: Not Active
[16]
  Activity: Not Active
[17]
  IC50: > 300 µM
[18]
  IC50: > 50 µM
[19]
  IC50: > 300 µM
[20]
  viability at 168 h, 4 times MIC: > 85%
[21]
  Activity: Not Active
[22]
  Drug metabolism: metabolite_notdetected
[23]
  IC50: > 300 µM
[24]
  IC50: > 185 µM
[25]
  Drug metabolism: metabolite_notdetected
[26]
  IC50: 0.05 µM
[27]
  Drug metabolism: metabolite_notdetected
[28]
  Activity: Not Active
[29]
  inhibition (INH): Not Active

## Cc1nnc(C(=O)NC(C)(C)c2nc(C(=O)NCc3ccc(F)cc3)c(O)c(=O)n2C)o1 [RALTEGRAVIR]
[9]
  Drug metabolism: metabolite_detected
[11]
  Drug metabolism: metabolite_detected
[22]
  Drug metabolism: metabolite_detected
[25]
  Drug metabolism: metabolite_detected
[27]
  Drug metabolism: metabolite_detected

## [H]/N=C(/N)N[C@H]1[C@H](O)[C@@H](O)[C@H](O[C@@H]2O[C@@H](C)[C@](O)(C=O)[C@H]2O[C@@H]2O[C@@H](CO)[C@H](O)[C@@H](O)[C@@H]2NC)[C@@H](N/C(N)=N\[H])[C@@H]1O [STREPTOMYCIN]
[20]
  viability at 168 h, 4 times MIC: 90%
